{"source": "paper PMC12474259", "about": "“ITF6475, a New Histone Deacetylase 6 Inhibitor, Prevents Painful Neuropathy Induced by Paclitaxel” (Toxics, 2025)", "key": {"C57BL/6 female mice [1]": {"test_system": "C57BL/6 female mice", "test": "General toxicity: mortality, health, body weight, histopathology", "assay_type": "in vivo", "conditions": "for mortality: ITF6475 all doses p.o. daily", "description": "In the days of co-treatment, ricolinostat and all doses of ITF were administered 4 h before PTX. The animals were housed in a certified and limited-access facility with controlled temperature (22 °C ± 2) and humidity (50% ± 20) and an artificial 12 h:12 h light cycle from 7 a.m. to 7 p.m. Mice were monitored daily to evaluate the mortality and their health, and body weight was measured twice a week during the treatment period in order to monitor general conditions and to adjust the dose.\n(§1) At baseline and at the end of treatment, neurophysiological evaluations and dynamic tests were performed (Figure 1). Baseline neurophysiological results were used to randomize the animals into the 6 groups to ensure homogeneity. At the end of treatment, the animals were sacrificed by isoflurane overdose, caudal nerves, liver, spleen, thymus, kidneys, and sternum were used for histopathological analysis, and skin biopsies for intraepidermal nerve fiber (IENF) density analysis were collected. At the end of the study, blood was collected from the tail vein under isoflurane anesthesia into 1.5 mL Eppendorf tubes, centrifuged at 3500× g for 10 min at 4 °C, and then serum was transferred into a new tube and stored at –80 °C until examined for neurofilament light (NfL) level analysis.\nLiver, spleen, thymus, kidneys, and sternum were collected and fixed in 10% buffered formalin at room temperature for 4 days. After fixation, the sternum was decalcified for 48 h at room temperature in 10% buffered EDTA. After trimming, these samples were paraffin-embedded, cut into 3 µm thick sections, stained with hematoxylin–eosin, and examined with an Olympus BX51 light microscope (Olympus, Segrate, Italy)."}, "[2]": {"test_system": "neurofilament light (NfL)", "test": "Serum neurofilament light (NfL) analysis in PIPN model", "assay_type": "in vivo, mouse", "conditions": "end of treatment", "description": "as §1\nSerum NfL concentrations were measured using an automated chemiluminescent enzyme immunoassay instrument LUMIPULSE G600 (LUMIPULSE G NfL Blood kit, Fujirebio, Pomezia, Italy). The concentration was expressed in pg/mL [27, 30, 31]."}, "C57BL/6 female mice [3]": {"test_system": "C57BL/6 female mice", "test": "Neuropathology, morphological analysis of caudal nerves", "assay_type": "in vivo, mouse", "conditions": "end of treatment, PTX alone or in combination", "description": "Caudal nerves were isolated for morphological analysis and processed as previously described, separating the proximal and the distal portions to obtain a better evaluation of the distal-to-proximal extension of the damage. Briefly, the caudal and sciatic nerves were immersion-fixed in 3% glutaraldehyde and were subsequently osmicated, dehydrated, and embedded in epoxy resin. Semithin sections of 1.5 μm thickness were prepared from at least three tissue blocks for each animal, stained with toluidine blue, and examined with a Nexcope Ne920 AUTO light microscope (TiEsseLab Srl, Milano, Italy)."}, "[4]": {"test": "Pharmacokinetic assessment in mouse plasma (LC-MS/MS)", "assay_type": "in vivo", "conditions": "for Cmax / AUC(0-t): oral; for AUC(0-t): read-out: AUC0–8h", "description": "For the determination of ITF6475 in mouse plasma (n. 3 mice/group), aliquots of 20 µL of samples were deproteinized by adding 300 µL of acetonitrile. After centrifugation, 100 µL of the supernatant was collected from each sample and allowed to dry in a nitrogen flow at 35 °C. The residue was then reconstituted in 150 µL of the mixture in 90% water/10% acetonitrile and 0.1% formic acid.\nQuantification of ITF6475 in the samples was carried out on a calibration curve in the range 1–1000 ng/mL. Quantification of Ricolinostat in mouse plasma was carried out on aliquots of 20 µL and deproteinized with 200 µL of acetonitrile. Aliquots of 100 µL of the supernatant were collected and diluted with 100 µL of the mixture in 90% water/10% acetonitrile and 0.1% formic acid. The calibration curve range was 1–1000 ng/mL.\nSamples were analyzed in an LC-MS/MS system, constituted by a Prominence Shimadzu HPLC (Shimadzu Italia S.r.l., Milano, Italy) and an API6500+ triple quadrupole mass spectrometer equipped with TurboIonSpray (Sciex, Milano, Italy). Analyses were carried out in a positive mode. The system was managed through the software Analyst 1.7.2 (Sciex, Milano, Italy)."}, "C57BL/6 female mice [5]": {"test_system": "C57BL/6 female mice", "assay_type": "in vivo", "conditions": "PTX + ricolinostat 50 mg/kg p.o. daily", "description": "(§2) C57BL/6 female mice (Inotiv, Udine, Italy) were used and randomized into six different groups (19 mice/group): one group was treated with PTX vehicle i.v., 1 time/week for 4 weeks and methocel 0.5% os, daily (VEH group); a second group was treated with PTX, i.v., 70 mg/kg 1 time/week for 4 weeks (PTX group); and the other four groups were treated with PTX, i.v., 70 mg/kg 1 time/week for 4 weeks and co-treated with ricolinostat, p.o., 50 mg/kg daily (PTX + ACY group), or with ITF6475, p.o., 1–6–12.5 mg/kg daily, p.o., (PTX + ITF1, PTX + ITF6, PTX + ITF12.5 groups), respectively (Figure 1). In the days of co-treatment, ricolinostat and all doses of ITF were administered 4 h before PTX. […] Mice were monitored daily to evaluate the mortality and their health, and body weight was measured twice a week during the treatment period in order to monitor general conditions and to adjust the dose.\nThe onset of PIPN was assessed by evaluating the sensory nerve conduction velocity (NCV) and nerve action potential amplitude (SNAP) of caudal and digital nerves using the electromyography apparatus (Matrix Light, Micromed, Treviso, Italy). […] Latencies were measured from stimulus onset, and peak-to-peak amplitudes were calculated. The NCV was calculated considering the measured distance between the recording and the stimulating negative electrode divided by the latency. […]"}, "C57BL/6 female mice [6]": {"test_system": "C57BL/6 female mice", "assay_type": "in vivo", "conditions": "end of treatment, PTX + ACY 50 mg/kg p.o. daily, p < 0.01", "description": "as §2\nTo evaluate the IENF density, glabrous skin punches from the plantar hind paw were fixed in paraformaldehyde-lysine and periodate sodium (PLP) 2%, cryoprotected and serially cut in 20 μm thick sections. […] The total number of PGP 9.5-positive IENF crossing the dermal-epidermal junction was counted by a blinded examiner (ACh) under a light microscope at 40× magnification (Nexcope Ne920 AUTO light microscope, TiEsseLab Srl, Milano, Italy). […]"}, "[7]": {"conditions": "general statement on hydroxamic acids, no reference given; cited from earlier work"}, "[8]": {"conditions": "4 weeks, PTX 70 mg/kg i.v. 1 time/week, ricolinostat 50 mg/kg p.o. daily"}}, "note": "Where two headings read alike, the source gives them in different places.", "data": [{"smiles": "CC(=O)O[C@H]1C(=O)[C@@]2(C)[C@H]([C@H](OC(=O)c3ccccc3)[C@]3(O)C[C@H](OC(=O)[C@H](O)[C@@H](NC(=O)c4ccccc4)c4ccccc4)C(C)=C1C3(C)C)[C@]1(OC(C)=O)CO[C@@H]1C[C@@H]2O", "note": "[PTX, paclitaxel]", "values": [{"measurement": "mortality", "setting": "C57BL/6 female mice [1]; [8]", "value": "no mortality was observed"}, {"measurement": "mice with mild, diffuse hepatic lipidosis", "setting": "C57BL/6 female mice [1]; female, C57BL/6, mouse, in vivo, 4 weeks", "value": "approximately 25%"}, {"measurement": "serum NfL vs. VEH", "setting": "[2]; PTX 70 mg/kg i.v. alone, p < 0.001", "value": "statistically significant difference"}, {"measurement": "morphology of distal caudal nerves", "setting": "C57BL/6 female mice [3]", "value": "even more severe axonopathy"}, {"measurement": "morphology of proximal caudal nerves", "setting": "C57BL/6 female mice [3]", "value": "severe axonopathy with numerous degenerated fibers"}]}, {"smiles": "O=C(CCCCCCNC(=O)c1cnc(N(c2ccccc2)c2ccccc2)nc1)NO", "note": "[ricolinostat]", "values": [{"measurement": "AUC increase with dosage", "setting": "[4]", "value": "increase non-linearly at doses above 25 mg/kg"}, {"measurement": "Cmax", "setting": "[4]; 25 mg/kg, dose 25 mpk", "value": 33.7, "unit": "ng/mL"}, {"measurement": "AUC(0-t)", "setting": "[4]; 25 mg/kg, dose 25 mpk", "value": 124, "unit": "ng·h/mL"}, {"measurement": "Cmax", "setting": "[4]; 100 mg/kg, dose 100 mpk", "value": 29.8, "unit": "ng/mL"}, {"measurement": "AUC(0-t)", "setting": "[4]; 100 mg/kg, dose 100 mpk", "value": 171, "unit": "ng·h/mL"}, {"measurement": "Cmax", "setting": "[4]; 200 mg/kg, dose 200 mpk", "value": 33.9, "unit": "ng/mL"}, {"measurement": "AUC(0-t)", "setting": "[4]; 200 mg/kg, dose 200 mpk", "value": 234, "unit": "ng·h/mL"}, {"measurement": "tolerability", "setting": "C57BL/6 female mice [1]; 4 weeks, PTX 70 mg/kg i.v. 1 time/week, ricolinostat 50 mg/kg p.o. daily, ITF6475 1–6–12.5 mg/kg p.o. daily (all doses)", "value": "well tolerated"}, {"measurement": "mortality", "setting": "C57BL/6 female mice [1]; [8]", "value": "no mortality was observed"}, {"measurement": "body weight vs. VEH", "setting": "C57BL/6 female mice [1]; PTX alone or in combination with ricolinostat 50 mg/kg or all doses of ITF", "value": "statistically significant increase in body weight"}, {"measurement": "relevant toxicity", "setting": "C57BL/6 female mice [1]; co-treated mice, ricolinostat 50 mg/kg or ITF6475 1–12.5 mg/kg p.o. daily with PTX", "value": "no evidence of relevant toxicity"}, {"measurement": "histopathology of thymus and spleen", "setting": "C57BL/6 female mice [1]; end of treatment, PTX alone or in combination with ricolinostat or ITF6475", "value": "thymic and splenic hypoplasia associated with reactive extramedullary ectopic hematopoiesis"}, {"measurement": "protection of PTX-induced reduction in digital nerve SNAP", "setting": "C57BL/6 female mice [5]", "value": "significant protection of reduction in digital nerve SNAP"}, {"measurement": "IENF density vs. VEH", "setting": "C57BL/6 female mice [6]", "value": "statistically significant reduction"}, {"measurement": "serum NfL vs. VEH", "setting": "[2]; PTX + ACY 50 mg/kg p.o. daily, p < 0.05", "value": "statistically significant difference"}, {"measurement": "protein binding (in words)", "setting": "[7]", "value": "not heavily protein-bound"}]}]}
